# Patent US6759385B1, “Methods to treat undesirable immune responses” (Regents of the University of Minnesota, priority 1997, dated 2004)
# What was measured:
# [1] = test system: CD8+ depleted spleen cells; assay: Cytokine secretion in response to TAChR by CD8+ depleted spleen cells (Example IV); type: cell-based, mouse; conditions: s.c. 200 μg/injection, 72 hours
# Experimental: Cytokine secretion in response to TAChR by spleen CD4^+ cells in vitro. Five to seven days after the last immunization, spleen cells of three identically treated mice were pooled, and depleted them of CD8^+ cells using paramagnetic beads and rat anti-mouse CD8^+ Ab (Pharmingen, San Diego, Calif.), following the manufacturer's instructions. The CD8^+ depleted, CD4^+ enriched cells were cultured with 10 μg/ml TAChR, or without any stimulus. 24 well plates were used, and duplicate cultures prepared. The supernatants were harvested after 72 hours, and the concentrations of IFN-γ, IL-4 and IL-10 determined in duplicate samples by capture ELISA using anti-INF-γ, anti-IL-4, anti-IL-10 Ab, and recombinant INF-γ, IL-4 and IL-10 (Pharmingen) as standards, and following the manufacturer's instructions.
# [2] = test system: serum anti-TAChR antibody; assay: Anti-AChR antibody assay by RIPA (Example I); type: in vivo, mouse
# Text: Sera was obtained from the mice after each clinical testing. […] The antibody concentration is expressed as μM precipitated ^125I-αBTX.
# [3] = test system: CD8+ depleted spleen cells; assay: Lymphocyte proliferation assay, CD8+ depleted spleen cells of IL-4 KO mice; type: cell-based, mouse; conditions: IL-4 KO mice immunized with TAChR, 10 μg/ml peptide
# Experimental: Lymphocyte Proliferation Assay. Two weeks after the last immunization, spleen cells (Bellone et al., 1991) were obtained from three identically treated IL-4 KO mice. The cells were pooled and depleted them in CD8^+ cells using paramagnetic beads and rat anti-mouse CD8^+ antibody (Pharmingen, San Diego, Calif.). The cells were suspended in RPMI-1640 (Gibco, Grand Island, N.Y.) supplemented with 10% heat inactivated fetal calf serum (Gibco), 50 μM 2-mercaptoethanol, 1 mM L-glutamine, 10 mM Hepes, 1 mM sodium pyruvate, 100 U/ml penicillin and 100 μg/ml streptomycin (×10^6 cells/ml). The cells were seeded in triplicate in 96 flat-bottom well plates (200 μl/well). One of the following antigens or stimulants was added: 10 μg/ml phytohemoagglutinine (PHA) (Sigma); 10 μg/ml TAChR; the pools of overlapping peptides spanning the α, β, γ, or δ subunit sequences (5 μg/ml) of each peptide); and 10 μg/ml of the individual a subunit peptides. Controls were triplicate wells cultivated without any antigen, or with or a 20-residue control peptide synthesized by the same method, unrelated to the TAChR sequence (10 μg). After four days the cells were labeled for 16 hours with ^3H-thymidine (1 μCi per well, specific activity 6.7 Ci/mmol, Dupont, Boston, Mass.), and harvested (Titertek, Skatron, Sterling, Va.). The ^3H-thymidine incorporation was measured by liquid scintillation.
# [4] = test system: EMG in IL-4 KO mice immunized with TAChR; assay: Transfer of CD4+ cells from peptide-treated B6 mice into IL-4 KO mice, EMG; type: in vivo, mouse; conditions: cells three times, three TAChR immunizations, 14 weeks
# Experimental: CD4^+ cells from wild type B6 mice that sniffed TACBR CD4^+ epitopes protect IL-4 KO R6 mice from development of EMG. Spleen CD4^+ cells were purified from wild type B6 mice that had sniffed a pool of the AChR a subunit peptide epitopes α50-169, α81-200 and α361-380, or peptide-free PBS (sham-treated). 10×10^6 CD4^+ cells from peptide-treated or sham-treated B6 mice to IL-4 KO B6 mice were administered i.v. (blue arrowhead in FIG. 25), just prior to a single immunization with TAChR (red arrowhead in FIG. 25). The strength of the mice was measured every 2 weeks, for 20 weeks after the TAChR immunization (FIG. 25). […] The lesser frequency of EMG as compared to the experiments described above is likely due to the use of a single immunizing injection of TAChR, or to variability in the susceptibility to EMG in different batch of IL-4 KO mice, similar to that described in other mouse strains.
# All IL-4 KO mice treated with CD4^+ cells from sham-treated B6 donors developed EMG from week four onwards (FIG. 26). […] By week 10 (i.e., two weeks after the second TAChR immunization). […]
substance,measurement,setting,value
"peptide Tα150-169: synthetic peptide corresponding to residues 150-169 of the TAChR α subunit (TYDGTKVSISPESDRPDLST; UniProt P02710 174-193, looked up, fragment)",TAChR-induced IFN-γ secretion,[1],did not cause increased
same,TAChR-induced IL-4 secretion,[1],significant increase
same,TAChR-induced IL-10 secretion,[1],in one of the two cultures tested
same,serum anti-TAChR antibody concentration compared with sham-treated,[2]; as early as 4 weeks after first TAChR immunization,significantly lower concentrations
same,serum anti-TAChR antibody concentration,"[2]; at ten weeks, nasal protocol B, μM precipitated 125I-αBTX",5.5 ± 1.5 µM
same,recognition of individual peptide by cells from sham-treated mice,[3],recognized strongly
same,recipients that developed EMG,[4],Only one mouse
